# Values quoted from earlier work in patent publication US11633460B2, “Injectable solution at pH 7 comprising at least one basal insulin wherein the pI is comprised from 5.8 to 8.5 and a co-polyamino acid bearing carboxylate charges and hydrophobic radicals” (ADOCIA, priority 2017, dated 2023).
# Conditions: patients, background statement
substance,measurement,value
insulin glargine,Period over which the hypoglycemic effect is quasi-constant,24 h
